Source: ChEMBL document CHEMBL4610012, “Identification of vibsanin A analog as a novel HSP90 inhibitor” (Bioorg Med Chem, 2020)
Activity calls are given as the source filed them. The rule behind the calls is not given here.

Assays:
[1] = system: HT-29; assay: Antiproliferative activity against human HT-29 cells assessed as reduction in cell viability incubated for 72 hrs by MTT assay; type: functional, cell-based; conditions: HT-29, 72 h
[2] = system: PANC-1; assay: Antiproliferative activity against human PANC1 cells assessed as reduction in cell viability incubated for 72 hrs by MTT assay; type: functional, cell-based; conditions: PANC-1, 72 h
[3] = system: PC-3; assay: Antiproliferative activity against human PC3 cells assessed as reduction in cell viability incubated for 72 hrs by MTT assay; type: functional, cell-based; conditions: PC-3, 72 h
[4] = system: NEC8; assay: Antiproliferative activity against human NEC8 cells assessed as reduction in cell viability incubated for 72 hrs by MTT assay; type: functional, cell-based; conditions: NEC8, 72 h
[5] = molecular target: T1, Serine/threonine-protein kinase AKT (Homo sapiens) (UniProt P31751+Q9Y243+P31749); assay: Inhibition of Akt signaling pathway in human HT1080 cells assessed as fold change in phosphorylated Akt level at 10 uM incubated for 24 hrs by immunoblot assay (reference value: 1); type: cell-based; conditions: HT-1080
T1 sequence (P31749 whole entry, looked up): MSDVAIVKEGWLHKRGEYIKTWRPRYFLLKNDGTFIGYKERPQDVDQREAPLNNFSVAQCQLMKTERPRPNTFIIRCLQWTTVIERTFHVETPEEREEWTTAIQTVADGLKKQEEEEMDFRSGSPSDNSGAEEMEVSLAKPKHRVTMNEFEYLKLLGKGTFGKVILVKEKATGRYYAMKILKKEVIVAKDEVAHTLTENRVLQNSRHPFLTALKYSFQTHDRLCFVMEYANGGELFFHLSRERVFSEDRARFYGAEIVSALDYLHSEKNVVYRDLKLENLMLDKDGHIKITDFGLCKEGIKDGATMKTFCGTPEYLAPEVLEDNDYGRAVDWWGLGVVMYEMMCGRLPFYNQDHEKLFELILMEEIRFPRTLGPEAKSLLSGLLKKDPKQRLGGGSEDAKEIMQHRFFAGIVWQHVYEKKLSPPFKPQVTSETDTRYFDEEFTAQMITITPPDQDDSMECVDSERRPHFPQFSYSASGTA
T1 sequence (P31751 whole entry, looked up): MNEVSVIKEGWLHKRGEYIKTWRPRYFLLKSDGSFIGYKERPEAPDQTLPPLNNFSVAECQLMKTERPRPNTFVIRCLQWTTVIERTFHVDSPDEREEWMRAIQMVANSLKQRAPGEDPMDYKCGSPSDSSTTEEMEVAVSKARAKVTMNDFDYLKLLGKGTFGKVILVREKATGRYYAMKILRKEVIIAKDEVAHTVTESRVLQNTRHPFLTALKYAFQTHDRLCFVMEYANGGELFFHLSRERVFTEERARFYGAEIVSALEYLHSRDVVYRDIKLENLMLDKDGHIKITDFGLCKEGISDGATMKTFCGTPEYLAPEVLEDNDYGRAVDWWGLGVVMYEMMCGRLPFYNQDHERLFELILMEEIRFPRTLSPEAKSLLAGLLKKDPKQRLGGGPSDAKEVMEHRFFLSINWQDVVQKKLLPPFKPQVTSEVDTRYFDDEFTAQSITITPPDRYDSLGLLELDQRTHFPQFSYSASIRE
T1 sequence (Q9Y243 whole entry, looked up): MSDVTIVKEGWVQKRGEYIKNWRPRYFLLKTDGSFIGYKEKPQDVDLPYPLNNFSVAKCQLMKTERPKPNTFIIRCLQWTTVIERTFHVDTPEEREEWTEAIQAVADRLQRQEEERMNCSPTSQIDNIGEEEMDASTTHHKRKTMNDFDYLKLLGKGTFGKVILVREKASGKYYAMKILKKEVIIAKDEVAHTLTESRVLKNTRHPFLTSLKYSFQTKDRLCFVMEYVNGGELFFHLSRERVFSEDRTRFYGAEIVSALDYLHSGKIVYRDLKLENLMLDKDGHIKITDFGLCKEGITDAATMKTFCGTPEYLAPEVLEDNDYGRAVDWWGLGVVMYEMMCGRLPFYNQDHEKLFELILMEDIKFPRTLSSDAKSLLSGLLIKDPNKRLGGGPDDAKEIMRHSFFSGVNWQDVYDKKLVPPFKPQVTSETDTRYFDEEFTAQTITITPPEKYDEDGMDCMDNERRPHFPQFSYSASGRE

[6] = system: HT-1080; assay: Antiproliferative activity against human HT1080 cells assessed as reduction in cell viability incubated for 72 hrs by MTT assay; type: functional, cell-based; conditions: HT-1080, 72 h
[7] = system: MCF7; assay: Antiproliferative activity against human MCF7 cells assessed as reduction in cell viability incubated for 72 hrs by MTT assay; type: functional, cell-based; conditions: MCF7, 72 h
[8] = system: A549; assay: Antiproliferative activity against human A549 cells assessed as reduction in cell viability incubated for 72 hrs by MTT assay; type: functional, cell-based; conditions: A549, 72 h
[9] = Antiproliferative activity against human ES2 cells assessed as reduction in cell viability incubated for 72 hrs by MTT assay; type: functional, cell-based; conditions: ES-2, 72 h
[10] = system: HT-1080; assay: Induction of vacuole formation in human HT1080 cells at 10 uM incubated for 24 hrs; type: functional, cell-based
[11] = molecular target: T1, Serine/threonine-protein kinase AKT (Homo sapiens); assay: Inhibition of Akt signaling pathway in human HT1080 cells assessed as fold change in phosphorylated 70S6K level at 10 uM incubated for 24 hrs by immunoblot assay (reference value: 1); type: cell-based; conditions: HT-1080
[12] = system: A-431; assay: Antiproliferative activity against human A431 cells assessed as reduction in cell viability incubated for 72 hrs by MTT assay; type: functional, cell-based; conditions: A-431, 72 h
[13] = system: SK-MEL-28; assay: Antiproliferative activity against human SK-MEL-28 cells assessed as reduction in cell viability incubated for 72 hrs by MTT assay; type: functional, cell-based; conditions: SK-MEL-28, 72 h
[14] = system: HT-1080; assay: Effect on Akt level in human HT1080 cells assessed as Akt level at 10 uM incubated for 24 hrs by immunoblot assay (reference value: 1); type: cell-based; conditions: ht-1080, 24 h
[15] = system: MCF7; assay: Effect on HSP90 level in human MCF7 cells at 10 uM incubated for 24 hrs by immunoblotting assay (reference value: 1); type: ADME, cell-based; conditions: mcf7, 24 h
[16] = system: MCF7; assay: Effect on HER2 mRNA expression in human MCF7 cells at 10 uM incubated for 24 hrs by qRT-PCR analysis; type: functional, cell-based
[17] = molecular target: T1, Serine/threonine-protein kinase AKT (Homo sapiens); assay: Inhibition of Akt signaling pathway in human HT1080 cells assessed as fold change in phosphorylated Akt level at 0.01 uM incubated for 12 hrs by immunoblot assay (reference value: 1); type: cell-based; conditions: HT-1080
[18] = molecular target: Luciferin 4-monooxygenase (Photinus pyralis) (UniProt P08659); assay: Effect on firefly luciferase activity at 100 uM incubated for 60 mins by luciferase assay system
Luciferin 4-monooxygenase (Photinus pyralis), sequence (P08659 whole entry): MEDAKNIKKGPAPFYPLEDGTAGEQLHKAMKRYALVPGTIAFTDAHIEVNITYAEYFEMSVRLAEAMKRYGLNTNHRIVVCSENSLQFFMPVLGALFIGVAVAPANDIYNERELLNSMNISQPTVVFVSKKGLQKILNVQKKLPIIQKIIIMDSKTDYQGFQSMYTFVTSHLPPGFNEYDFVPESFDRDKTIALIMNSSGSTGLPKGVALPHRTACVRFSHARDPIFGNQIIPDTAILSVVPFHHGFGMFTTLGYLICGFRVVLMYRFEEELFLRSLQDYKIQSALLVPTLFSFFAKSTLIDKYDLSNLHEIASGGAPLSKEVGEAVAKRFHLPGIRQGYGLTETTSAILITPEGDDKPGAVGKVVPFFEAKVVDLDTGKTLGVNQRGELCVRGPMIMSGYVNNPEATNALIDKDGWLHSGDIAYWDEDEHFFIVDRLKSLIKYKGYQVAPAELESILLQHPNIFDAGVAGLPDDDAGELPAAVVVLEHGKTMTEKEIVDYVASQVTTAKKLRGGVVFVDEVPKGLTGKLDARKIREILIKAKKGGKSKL

[19] = molecular target: Receptor tyrosine-protein kinase erbB-2 (Homo sapiens) (UniProt P04626); assay: Induction of HER2 destabilization in human MCF7 cells assessed as half life at 10 uM measured up to 24 hrs by immunoblotting assay (Rvb > 24 hrs); type: cell-based
Receptor tyrosine-protein kinase erbB-2 (Homo sapiens), sequence (P04626 whole entry): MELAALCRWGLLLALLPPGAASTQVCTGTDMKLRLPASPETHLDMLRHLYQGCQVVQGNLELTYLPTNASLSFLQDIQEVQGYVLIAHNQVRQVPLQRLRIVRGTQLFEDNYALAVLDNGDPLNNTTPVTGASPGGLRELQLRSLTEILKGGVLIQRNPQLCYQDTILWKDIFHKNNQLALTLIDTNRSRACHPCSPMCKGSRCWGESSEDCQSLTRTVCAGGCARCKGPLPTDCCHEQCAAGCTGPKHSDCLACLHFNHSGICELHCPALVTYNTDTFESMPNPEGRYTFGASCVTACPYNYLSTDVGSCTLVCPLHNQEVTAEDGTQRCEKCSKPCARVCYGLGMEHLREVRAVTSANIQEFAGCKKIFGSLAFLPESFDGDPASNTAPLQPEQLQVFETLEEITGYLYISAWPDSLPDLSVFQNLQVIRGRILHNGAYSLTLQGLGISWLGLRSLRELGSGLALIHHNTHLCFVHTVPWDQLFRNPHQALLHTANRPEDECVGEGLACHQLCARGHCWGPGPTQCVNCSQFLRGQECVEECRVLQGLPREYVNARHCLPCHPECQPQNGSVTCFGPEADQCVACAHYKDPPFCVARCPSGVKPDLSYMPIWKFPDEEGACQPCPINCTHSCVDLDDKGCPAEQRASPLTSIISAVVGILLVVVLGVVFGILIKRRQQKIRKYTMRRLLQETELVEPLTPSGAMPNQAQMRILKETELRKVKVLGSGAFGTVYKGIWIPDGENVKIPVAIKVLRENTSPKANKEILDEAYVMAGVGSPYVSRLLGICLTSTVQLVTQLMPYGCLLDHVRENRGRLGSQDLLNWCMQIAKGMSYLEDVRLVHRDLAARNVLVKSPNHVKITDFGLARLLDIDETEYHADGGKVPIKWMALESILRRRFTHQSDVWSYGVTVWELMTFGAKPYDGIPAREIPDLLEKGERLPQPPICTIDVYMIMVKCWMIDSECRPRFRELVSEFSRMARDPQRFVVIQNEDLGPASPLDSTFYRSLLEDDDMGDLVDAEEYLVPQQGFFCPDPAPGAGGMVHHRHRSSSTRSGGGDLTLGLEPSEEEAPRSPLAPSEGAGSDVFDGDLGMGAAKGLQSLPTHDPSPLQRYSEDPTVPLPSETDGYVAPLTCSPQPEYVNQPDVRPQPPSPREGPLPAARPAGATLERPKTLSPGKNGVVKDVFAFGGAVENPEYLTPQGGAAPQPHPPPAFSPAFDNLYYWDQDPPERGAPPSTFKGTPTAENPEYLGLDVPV

[20] = molecular target: T1, Serine/threonine-protein kinase AKT (Homo sapiens); assay: Inhibition of Akt signaling pathway in human HT1080 cells assessed as fold change in phosphorylated Akt level at 0.1 uM incubated for 12 hrs by immunoblot assay (reference value: 1); type: cell-based; conditions: HT-1080
[21] = molecular target: T1, Serine/threonine-protein kinase AKT (Homo sapiens); assay: Inhibition of Akt signaling pathway in human HT1080 cells assessed as fold change in phosphorylated Akt level at 10 uM incubated for 12 hrs by immunoblot assay (reference value: 1); type: cell-based; conditions: HT-1080
[22] = molecular target: Heat shock protein HSP90 (Homo sapiens) (UniProt P07900+P08238); assay: Inhibition of HSP90 chaperone activity in human HeLa cells assessed as reduction in denatured luciferase refolding at 100 uM incubated for 60 mins by luciferase refolding assay; type: cell-based
[23] = molecular target: T1, Serine/threonine-protein kinase AKT (Homo sapiens); assay: Inhibition of Akt signaling pathway in human HT1080 cells assessed as fold change in phosphorylated Akt level at 1 uM incubated for 12 hrs by immunoblot assay (reference value: 1); type: cell-based; conditions: HT-1080
[24] = molecular target: T1, Serine/threonine-protein kinase AKT (Homo sapiens); assay: Inhibition of Akt signaling pathway in human HT1080 cells assessed as reduction in phosphorylated Akt level incubated for 12 hrs by immunoblot assay; type: cell-based; conditions: HT-1080

Structure (SMILES) | IC50 [1] | IC50 [2] | IC50 [3] | fold change (FC) [5] | IC50 [6] | IC50 [7] | IC50 [8] | fold change (FC) [11] | IC50 [12] | IC50 [13] | fold change (FC) [14] | fold change (FC) [15] | IC50 [4] | IC50 [9] | Activity [10] | Activity [16] | also measured
C=C(I)CC[C@H]1O[C@@]1(C)[C@@H](/C=C/[C@](C)(CC=O)CCC=C(C)C)OC(=O)C=C(C)C | > 20 µM | 5.1 µM | > 20 µM | 0.91 | 18 µM | > 20 µM | > 20 µM | 1.15 | 20 µM | > 20 µM | 0.92 | – | 11 µM | > 20 µM | inactive | – | –
COC1=C2C[C@@H](C)C[C@H](OC)[C@H](O)[C@@H](C)/C=C(\C)[C@H](OC(N)=O)[C@@H](OC)/C=C\C=C(/C)C(=O)NC(=CC1=O)C2=O [GELDANAMYCIN] | – | – | – | – | – | – | – | – | – | – | – | 1.01 | – | – | – | inactive | –
C=C1CC[C@H]2O[C@@]2(C)[C@H](OC(=O)C=C(C)C)/C=C/[C@@](C)(CCC=C(C)C)CC1=O | 2 µM | 3.5 µM | 4.3 µM | 0.11 | 1.2 µM | 3.5 µM | 4.4 µM | 0.08 | 0.89 µM | 0.97 µM | 0.8 | 0.98 | 3 µM | 4.3 µM | Active | inactive | fold change (FC) [17]: 0.99; Activity [18]: inactive; T1/2 [19]: 15 h; fold change (FC) [20]: 0.8; fold change (FC) [21]: 0.38; inhibition [22]: Active; fold change (FC) [23]: 0.63; inhibition [24]: Dose-dependent effect

Now from value to compound, other results behind:

IC50 [1] | IC50 [2] | IC50 [3] | fold change (FC) [5] | IC50 [6] | IC50 [7] | IC50 [8] | fold change (FC) [11] | IC50 [12] | IC50 [13] | fold change (FC) [14] | fold change (FC) [15] | Structure (SMILES) | IC50 [4] | IC50 [9] | Activity [10] | Activity [16] | also measured
6.8 µM | 0.025 µM | > 20 µM | 0.98 | > 20 µM | 15 µM | 8.3 µM | 1.2 | 16 µM | > 20 µM | 1.08 | – | CC(C)=CCC[C@]1(C)/C=C/[C@@H](OC(=O)C=C(C)C)[C@]2(C)O[C@@H]2CC/C(CO)=C\C1 | 8.4 µM | 2.9 µM | inactive | – | –
7.8 µM | 2.7 µM | > 20 µM | 1.05 | 18 µM | 12 µM | 11 µM | 1.11 | 13 µM | > 20 µM | 0.85 | – | CC(C)=CCC[C@]1(C)/C=C/[C@@H](OC(=O)C=C(C)C)[C@]2(C)O[C@@H]2CC/C(C=O)=C\C1 | 12 µM | 7.5 µM | inactive | – | –
> 20 µM | > 20 µM | > 20 µM | 0.95 | > 20 µM | > 20 µM | > 20 µM | 1.1 | > 20 µM | > 20 µM | 0.98 | – | C=C1CC[C@H]2O[C@@]2(C)[C@H](OC(=O)C=C(C)C)/C=C/[C@@](C)(CCC=C(C)C)C[C@H]1O | 11 µM | > 20 µM | inactive | – | –
